Results taken from ChEMBL document CHEMBL1142585, “Two new cytotoxic linderazulenes from a deep-sea gorgonian of the genus Paramuricea” (J Nat Prod, 2005).
In brackets after ≈: the same amount, converted by molar mass. Activity calls are given as the source filed them. No cut-off for these calls is given here.

What was measured:
P388 = experiment: Cytotoxicity against mouse P388 cells by MTT assay; format: functional, cell-based
Candida albicans = experiment: Antifungal activity against Candida albicans at 50 ug/mL; format: functional, organism-based
PANC-1 = experiment: Cytotoxicity against human PANC-1 cells by MTT assay; format: functional, cell-based

Question: Which results are given for Cc1cc2occ(C)c2cc2c(C=O)ccc1-2?
Answer: IC50 (P388): 15.6 µg/mL (≈ 69.6 µM); Activity (Candida albicans): inactive

Question: COC(=O)c1ccc2c(C)cc3occ(C)c3cc1-2 was tested. Which IC50 (P388) did it give?
Answer: Its IC50 is 2.7 µg/mL (≈ 10.6 µM).

Question: What about the IC50 (PANC-1) of the same molecule?
Answer: Its IC50 is 18.7 µg/mL (≈ 73.5 µM).

Question: And the Activity (Candida albicans)?
Answer: Its Activity is “inactive”.

Question: Which IC50 (P388) does the source give for Cc1cc2occ(C)c2cc2c(C)ccc1-2 [LINDERAZULENE] here?
Answer: The IC50 was 18.8 µg/mL (≈ 89.4 µM).

Question: And the Activity (Candida albicans)?
Answer: The Activity was “inactive”.
